# Measurements reported in BindingDB's records for patent WO2025054369 (NICO Therapeutics, 2025).
# Molecular target: T1, NAD(+) hydrolase SARM1 (Homo sapiens, UniProt Q6SZW1)
# T1 sequence (Q6SZW1 whole entry): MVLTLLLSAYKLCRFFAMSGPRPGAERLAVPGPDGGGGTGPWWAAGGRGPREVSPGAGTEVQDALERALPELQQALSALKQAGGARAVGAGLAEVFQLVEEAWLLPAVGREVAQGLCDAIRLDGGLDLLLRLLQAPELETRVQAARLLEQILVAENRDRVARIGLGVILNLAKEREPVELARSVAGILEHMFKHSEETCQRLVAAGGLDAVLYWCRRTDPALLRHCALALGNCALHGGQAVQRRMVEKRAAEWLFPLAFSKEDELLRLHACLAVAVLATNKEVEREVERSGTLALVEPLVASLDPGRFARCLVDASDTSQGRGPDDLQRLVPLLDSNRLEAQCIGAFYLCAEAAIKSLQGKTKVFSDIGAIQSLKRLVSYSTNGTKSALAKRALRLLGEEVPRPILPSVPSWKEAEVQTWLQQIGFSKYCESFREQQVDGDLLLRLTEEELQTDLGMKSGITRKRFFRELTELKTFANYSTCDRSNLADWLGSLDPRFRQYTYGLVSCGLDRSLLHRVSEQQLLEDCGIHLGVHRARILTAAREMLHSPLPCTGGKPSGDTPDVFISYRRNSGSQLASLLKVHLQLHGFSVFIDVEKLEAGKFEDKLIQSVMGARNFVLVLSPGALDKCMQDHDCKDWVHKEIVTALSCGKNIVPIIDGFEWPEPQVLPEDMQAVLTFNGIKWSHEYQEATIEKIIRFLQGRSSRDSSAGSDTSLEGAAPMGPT
# Test: Biochemical Assay of the Compounds
# Experimental: Preparation of full-length SARM1 (FL-SARM1) lysate: HEK293T cells (ATCC: CRL-3216) were grown on 150 mm TC-treated dishes to 80-90% confluency in complete DMEM (DMEM (Thermo Fisher: 11965175) supplemented with 10% HI-FBS (VWR: 10802-772), 1x Pen/Strep (Thermo Fisher: 15140122), 1x NEAA (Thermo Fisher: 1140050), 1x glutamax (Thermo Fisher: 35050061), and 1 mM sodium pyruvate (Thermo Fisher: 11360070)) at 37 °C and 5% CO2. One hour prior to transfection, the media was replaced with fresh, 37 °C complete DMEM (20 mL per one 150 mm dish) supplemented with additional 10mM glucose (Alfa Aesar AAJ60067EQE). Per one 150 mm dish, 30 µg FL-SARM1 (SEQ. ID.1; cloned in-house) plasmid was dissolved in 1 mL DMEM at ambient temperature and were mixed by inverting the tube 8-10 times.90 µL of GenJet™ in vitro DNA transfection reagent (Ver2) was dissolved in 1 mL DMEM at ambient temperature and were mixed by inverting the tube 8-10 times. The plasmid and transfection agent solutions were combined, mixed by 8-10 inversions and incubated for 10 minutes at ambient temperature.2 mL of this transfection mixture was added to each dish containing HEK293T cells as prepared above followed by a gentle mixing of 4-5 horizontal rotations. The dishes were incubated at 37 °C and 5% CO2 for 24 h. The dishes were removed from the incubator, the medium was aspirated and the cells were scraped off using cell scrapers in ice-cold 1x PBS (5 mL/dish, Thermo Fisher Scientific 10010023). The collected cells were centrifuged at 300 g for 5 minutes at 4 °C. The supernatant was aspirated and the pellet was frozen at -80 °C until needed. The cell pellet from 30 dishes was dissolved in 30 mL 1x PBS supplemented with 4 tablets of Complete, Mini EDTA-free protease inhibitor cocktail at 4 °C. This mixture was sonicated on ice for 10 minutes at 50% amplitude with a 1 second on/1 second off interval using a Model 120 sonicator (Thermo Fisher Scientific, FB120110). The lysate was centrifuged at 16000 g for 10 minutes at 4 °C.
row,SMILES,IC50 [nM]
1,"Cc1nnc(C23CC(C)CC(C2)N3C(=O)Nc2ccc(Cl)c(C3CCC3)c2)o1 (stereo unspecified) [WO2025054369, Example 1]",< 1000
2,"Cc1nnc(C23CC(C)CC(C2)N3C(=O)Nc2ccc(C(F)(F)F)c(C3CCC3)c2)o1 (stereo unspecified) [WO2025054369, Example 2]",< 1000
3,"Cc1nnc(C23CC(C)CC(C2)N3C(=O)Nc2ccc(Cl)c([C@@H]3CC[C@@H]3C#N)c2)o1 (stereo partly specified) [WO2025054369, Example 3]",< 1000
4,"Cc1nnc(C23CC(C)CC(C2)N3C(=O)Nc2ccc(Cl)c([C@H]3CC[C@H]3C#N)c2)o1 (stereo partly specified) [WO2025054369, Example 4]",< 1000
5,"Cc1ccc(NC(=O)N2C3CC(C)CC2C3)cc1C(C)C#N (stereo unspecified) [WO2025054369, Example 5]",< 1000
6,"Cc1ccc(NC(=O)N2C3CC(C)CC2C3)cc1C1CCC1C#N (stereo unspecified) [WO2025054369, Example 6]",< 1000
7,"Cc1ccc(NC(=O)N2C3CC(C)CC2C3)cc1[C@@H]1CC[C@@H]1C#N (stereo partly specified) [WO2025054369, Example 7]",< 1000
8,"Cc1ccc(NC(=O)N2C3CC(C)CC2C3)cc1[C@H]1CC[C@H]1C#N (stereo partly specified) [WO2025054369, Example 8]",< 1000
9,"CC1CC2CC(C1)N2C(=O)Nc1ccc(Cl)c([C@@H]2CC[C@@H]2C#N)c1 (stereo partly specified) [WO2025054369, Example 9]",< 1000
10,"CC1CC2CC(C1)N2C(=O)Nc1ccc(Cl)c([C@H]2CC[C@H]2C#N)c1 (stereo partly specified) [WO2025054369, Example 10]",< 1000
11,"Cc1ccc(NC(=O)CC2CCC2)cc1C1CCC1 [WO2025054369, Example 11]",> 10000
12,"Cc1ccc(NC(=O)N2C3CCCC2C3)cc1C1CCC1 [WO2025054369, Example 12]",5500
13,"Cc1ccc(NC(=O)N2C3CCCC2C3)cc1CC1CC1 [WO2025054369, Example 13]",5500
14,"Cc1ccc(NC(=O)N2C3CCCC2C3)cc1C1CC(=O)N(C)C1 (stereo unspecified) [WO2025054369, Example 14]",5500
15,"Cc1ccc(NC(=O)N2C3CCCC2C3)cc1C1CN(C)C1 [WO2025054369, Example 15]",5500
16,"Cc1nnc(C23CC(C)CC(C2)N3C(=O)Nc2ccc(Cl)c([C@@H]3C[C@@H]3C#N)c2)o1 (stereo partly specified) [WO2025054369, Example 16]",5500
17,"Cc1nnc(C23CC(C)CC(C2)N3C(=O)Nc2ccc(Cl)c([C@H]3C[C@H]3C#N)c2)o1 (stereo partly specified) [WO2025054369, Example 17]",< 1000
18,"CC1CC2CC(C1)N2C(=O)Nc1ccc(Cl)c(C2CCC2)c1 (stereo unspecified) [WO2025054369, Example 18]",< 1000
19,"CC1CC2CC(C1)N2C(=O)Nc1ccc(Cl)c(C2(F)CCC2)c1 (stereo unspecified) [WO2025054369, Example 19]",< 1000
20,"CC1CC2CC(C1)N2C(=O)Nc1ccc(Cl)c(C23CC(C2)C3)c1 (stereo unspecified) [WO2025054369, Example 20]",< 1000
21,"Cc1ccc(NC(=O)CC2CCC2)cc1C1CC1 [WO2025054369, Example 21]",> 10000
22,"Cc1ccc(NC(=O)N2C3CCCC2C3)cc1C1CC1 [WO2025054369, Example 22]",5500
23,"Cc1ccc(NC(=O)N2C3CC(C)CC2C3)cc1C12CC(F)(C1)C2 (stereo unspecified) [WO2025054369, Example 23]",< 1000

# Now from value to molecule:
row,IC50 [nM],SMILES
1,< 1000,"CC1CC2CC(C1)N2C(=O)Nc1ccc(Cl)c([C@@H]2CC[C@H]2n2ccnn2)c1 (relative stereo) [WO2025054369, Example 27]"
2,< 1000,"CC1CC2CC(C1)N2C(=O)Nc1ccc(Cl)c([C@@H]2CC[C@@H]2n2ccnn2)c1 (relative stereo) [WO2025054369, Example 28]"
3,5500,"CC1CC2CC(C1)N2C(=O)Nc1ccc(Cl)c([C@@H]2CC[C@H]2n2nccn2)c1 (relative stereo) [WO2025054369, Example 29]"
4,< 1000,"CC1CC2CC(C1)N2C(=O)Nc1ccc(Cl)c([C@@H]2CC[C@@H]2n2nccn2)c1 (relative stereo) [WO2025054369, Example 30]"
5,< 1000,"CC1CC2CC(C1)N2C(=O)Nc1ccc(Cl)c([C@@H]2CC[C@H]2n2cnnc2)c1 (relative stereo) [WO2025054369, Example 31]"
6,< 1000,"N#C[C@H]1CC[C@H]1c1cc(NC(=O)N2C3CCC2CC(C(F)(F)F)C3)ccc1Cl (relative stereo; form 1) [WO2025054369, Example 44]"
7,5500,"N#C[C@H]1CC[C@H]1c1cc(NC(=O)N2C3CCC2CC(C(F)(F)F)C3)ccc1Cl (relative stereo; form 2) [WO2025054369, Example 45]"
8,< 1000,"Cc1ccc(NC(=O)N2C3CCCC2C3)cc1C12CC(C)(C1)C2 [WO2025054369, Example 24]"
9,< 1000,"Cc1nnc(C23CC(C)CC(C2)N3C(=O)Nc2ccc(C(F)(F)F)c(C3CC(F)(F)C3)c2)o1 (stereo unspecified) [WO2025054369, Example 25]"
10,5500,"Cc1ccc(NC(=O)N2C3CCCC2C3)cc1C1CN(CC(F)(F)F)C1 [WO2025054369, Example 26]"
11,< 1000,"N#C[C@H]1CC[C@H]1c1cc(NC(=O)N2C3CC2CC(C(F)(F)F)C3)ccc1Cl (stereo partly specified) [WO2025054369, Example 32]"
12,< 1000,"N#C[C@@H]1CC[C@@H]1c1cc(NC(=O)N2C3CC2CC(C(F)(F)F)C3)ccc1Cl (stereo partly specified) [WO2025054369, Example 33]"
13,< 1000,"CC1CC2CC(C1)N2C(=O)Nc1cc(F)c(Cl)c([C@@H]2CC[C@@H]2C#N)c1 (stereo partly specified) [WO2025054369, Example 34]"
14,< 1000,"CC1CC2CC(C1)N2C(=O)Nc1cc(F)c(Cl)c([C@H]2CC[C@H]2C#N)c1 (stereo partly specified) [WO2025054369, Example 35]"
15,< 1000,"CC1CC2CC(C1)N2C(=O)Nc1ccc(Cl)c([C@H]2C[C@H](O)C2)c1 (stereo partly specified) [WO2025054369, Example 36]"
16,< 1000,"CC1CC2CC(C1)N2C(=O)Nc1ccc(Cl)c([C@H]2C[C@@H](O)C2)c1 (stereo partly specified) [WO2025054369, Example 37]"
17,< 1000,"CC1CC2CC(C1)N2C(=O)Nc1ccc(Cl)c(C2CC(C)(O)C2)c1 (stereo unspecified) [WO2025054369, Example 38]"
18,< 1000,"CC1CC2CC(C1)N2C(=O)Nc1ccc(Cl)c([C@@H]2CC[C@@H]2C(F)F)c1 (stereo partly specified) [WO2025054369, Example 40]"
19,5500,"CC1CC2CC(C1)N2C(=O)Nc1ccc(Cl)c([C@H]2CC[C@H]2C(F)F)c1 (stereo partly specified) [WO2025054369, Example 41]"
20,< 1000,"O=C(Nc1ccc(Cl)c([C@H]2C[C@H](O)C2)c1)N1C2CC1CC(C(F)(F)F)C2 (stereo partly specified) [WO2025054369, Example 42]"
21,< 1000,"O=C(Nc1ccc(Cl)c([C@H]2C[C@@H](O)C2)c1)N1C2CC1CC(C(F)(F)F)C2 (stereo partly specified) [WO2025054369, Example 43]"
22,< 1000,"CC1CC2CC(C1)N2C(=O)Nc1ccc(Cl)c([C@@H]2CC[C@]2(C)O)c1 (stereo partly specified) [WO2025054369, Example 46]"
23,> 10000,"CC1CC2CC(C1)N2C(=O)Nc1ccc(Cl)c([C@H]2CC[C@@]2(C)O)c1 (stereo partly specified) [WO2025054369, Example 47]"
24,< 1000,"CC1CC2CC(C1)N2C(=O)Nc1ccc(Cl)c([C@H]2C[C@H](F)C2)c1 (stereo partly specified) [WO2025054369, Example 48]"
25,< 1000,"CC1CC2CC(C1)N2C(=O)Nc1ccc(Cl)c([C@H]2C[C@@H](F)C2)c1 (stereo partly specified) [WO2025054369, Example 49]"
26,< 1000,"CC1CC2CC(C1)N2C(=O)Nc1ccc(Cl)c([C@H]2CC[C@@H]2C(F)F)c1 (stereo partly specified) [WO2025054369, Example 50]"
27,< 1000,"CC1CC2CC(C1)N2C(=O)Nc1ccc(Cl)c([C@@H]2CC[C@H]2C(F)F)c1 (stereo partly specified) [WO2025054369, Example 51]"
28,5500,"N#C[C@H]1CC[C@H]1c1cc(NC(=O)N2C3CC2CC(C(F)(F)F)C3)ccc1C(F)(F)F (stereo partly specified) [WO2025054369, Example 52]"
